Test results from PubChem BioAssay AID2060897 (Molecular Pharmacology Branch, DTP, NCI, 2025).
“And” between values parts separate entries of the source, which are not always exact repeats. Identical values can stand only once.

Tested on: 966289-007-R4-J1-PDC complex spheroid viability
Experiment: Anticancer human tumor 966289-007-R4-J1-PDC patient-derived pancreatic adenocarcinoma cell line growth inhibition [RAS]
Conditions: for viability, T/C: stronger effect = lower value; active = viability on the fitted dose curve at most 10% of control; inactive = the rest
Method in brief: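 Multi-cell-type spheroids: tumor cells plus HUVEC endothelial cells and mesenchymal stem cells. RAS-pathway inhibitors were combined with targeted agents, each dosed in half-log steps down from clinical Cmax, or from 10 microM when Cmax was unknown.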

[1] = curve of first compound, second compound 0.0316 µM
[2] = curve of first compound, second compound 0.1 µM
[3] = curve of first compound, second compound 0.316 µM
[4] = curve of first compound, second compound 1 µM
[5] = second compound 0.0316 µM, first compound 0.0316 µM
[6] = second compound 0.0316 µM, first compound 0.1 µM
[7] = second compound 0.1 µM, first compound 0.0316 µM
[8] = second compound 0.1 µM, first compound 0.1 µM
[9] = second compound 0.316 µM, first compound 0.0316 µM
[10] = second compound 0.316 µM, first compound 0.1 µM
[11] = second compound 1 µM, first compound 0.0316 µM
[12] = second compound 1 µM, first compound 0.1 µM
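Also: spheroids exposed to agents for one week before readout.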
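For viability, T/C in this document: percent viability relative to DMSO vehicle control wells as 100%.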

CC(=O)OC12COC1CC(O)C1(C)C(=O)C(O)C3=C(C)C(OC(=O)C(O)C(NC(=O)OC(C)(C)C)c4ccccc4)CC(O)(C(OC(=O)c4ccccc4)C21)C3(C)C (configuration not stated) + C=CC(=O)N1CCN(c2nc(OCC3CCCN3C)nc3c(F)c(-c4nc(N)cc(C)c4C(F)(F)F)c(Cl)cc23)C(C)C1
inactive: viability, T/C (second compound 0.00316 µM, first compound 0.1 µM) 11.8% | viability, T/C (second compound 0.00316 µM, first compound 0.316 µM) 14.4% | viability, T/C (second compound 0.00316 µM, first compound 1 µM) 20.6% | viability, T/C (second compound 0.00316 µM, first compound 3.16 µM) 30.4% | viability, T/C (second compound 0.00316 µM, first compound 10 µM) 48.1% | viability, T/C (second compound 0.01 µM, first compound 0.1 µM) 11.6% | viability, T/C (second compound 0.01 µM, first compound 0.316 µM) 14.8% | viability, T/C (second compound 0.01 µM, first compound 1 µM) 19.2% | viability, T/C (second compound 0.01 µM, first compound 3.16 µM) 31.9% | viability, T/C (second compound 0.01 µM, first compound 10 µM) 60.7% | viability, T/C [6] 13.9% | viability, T/C (second compound 0.0316 µM, first compound 0.316 µM) 10.9% | viability, T/C (second compound 0.0316 µM, first compound 1 µM) 18.2% | viability, T/C (second compound 0.0316 µM, first compound 3.16 µM) 33.2% | viability, T/C (second compound 0.0316 µM, first compound 10 µM) 56.3% | viability, T/C [8] 12.7% | viability, T/C (second compound 0.1 µM, first compound 0.316 µM) 15.2% | viability, T/C (second compound 0.1 µM, first compound 1 µM) 21.9% | viability, T/C (second compound 0.1 µM, first compound 3.16 µM) 30.4% | viability, T/C (second compound 0.1 µM, first compound 10 µM) 57.9% | viability, T/C (second compound 0.316 µM, first compound 0.316 µM) 12.1% | viability, T/C (second compound 0.316 µM, first compound 1 µM) 15.3% | viability, T/C (second compound 0.316 µM, first compound 3.16 µM) 30.3% | viability, T/C (second compound 0.316 µM, first compound 10 µM) 56.1% | viability, T/C (second compound 1 µM, first compound 0.316 µM) 12.5% | viability, T/C (second compound 1 µM, first compound 1 µM) 19% | viability, T/C (second compound 1 µM, first compound 3.16 µM) 35.8% | viability, T/C (second compound 1 µM, first compound 10 µM) 49.2%
active: viability, T/C (second compound 0.00316 µM, first compound 0.0316 µM) 7.49% | viability, T/C (second compound 0.01 µM, first compound 0.0316 µM) 7.11% | viability, T/C [5] 7.67% | viability, T/C [7] 6.48% | viability, T/C [9] 7.29% | viability, T/C [10] 12% | viability, T/C [11] 8.02% | viability, T/C [12] 12.3%
< 0.0316 µM: IC50 (curve of first compound, second compound 0.00316 µM) | IC50 (curve of first compound, second compound 0.01 µM) | IC50 [1] | IC50 [2] | IC50 [3] | IC50 [4]

CC(Nc1ccc2c(c1)OCCn1cc(N3C(=O)OCC3C(F)F)nc1-2)C(N)=O (configuration not stated)
> 10 µM: IC50 (curve of compound)
inactive: viability, T/C (compound 0.316 µM) 101% (2×) and 121% and 106% | viability, T/C (compound 10 µM) 87.9% [middle of 4 runs]

CC(C)n1nc(-c2ccc3oc(N)nc3c2)c2c(N)ncnc21 + C#Cc1c(F)ccc2cc(O)cc(-c3ncc4c(N5CC6CCC(C5)N6)nc(OCC56CCCN5CC(F)C6)nc4c3F)c12
0.0388 µM: IC50 [3]
0.0426 µM: IC50 [4]
0.0233 µM: IC50 (curve of first compound, second compound 10 µM)
0.0415 µM: IC50 (curve of first compound, second compound 3.16 µM)
inactive: viability, T/C (second compound 0.0316 µM, first compound 0.000316 µM) 99.2% | viability, T/C (second compound 0.0316 µM, first compound 0.001 µM) 96.8% | viability, T/C (second compound 0.0316 µM, first compound 0.00316 µM) 91.8% | viability, T/C (second compound 0.0316 µM, first compound 0.01 µM) 106% | viability, T/C [5] 61.8% | viability, T/C [6] 26.6% | viability, T/C (second compound 0.1 µM, first compound 0.000316 µM) 104% | viability, T/C (second compound 0.1 µM, first compound 0.001 µM) 99.4% | viability, T/C (second compound 0.1 µM, first compound 0.00316 µM) 104% | viability, T/C (second compound 0.1 µM, first compound 0.01 µM) 110% | viability, T/C [7] 67% | viability, T/C [8] 24.1% | viability, T/C (second compound 0.316 µM, first compound 0.000316 µM) 111% | viability, T/C (second compound 0.316 µM, first compound 0.001 µM) 103% | viability, T/C (second compound 0.316 µM, first compound 0.00316 µM) 114% | viability, T/C (second compound 0.316 µM, first compound 0.01 µM) 109% | viability, T/C [9] 56.3% | viability, T/C [10] 21% | viability, T/C (second compound 1 µM, first compound 0.000316 µM) 108% | viability, T/C (second compound 1 µM, first compound 0.001 µM) 118% | viability, T/C (second compound 1 µM, first compound 0.00316 µM) 119% | viability, T/C (second compound 1 µM, first compound 0.01 µM) 126% | viability, T/C [11] 59.7% | viability, T/C [12] 22% | viability, T/C (second compound 3.16 µM, first compound 0.000316 µM) 108% | viability, T/C (second compound 3.16 µM, first compound 0.001 µM) 113% | viability, T/C (second compound 3.16 µM, first compound 0.00316 µM) 125% | viability, T/C (second compound 3.16 µM, first compound 0.01 µM) 105% | viability, T/C (second compound 3.16 µM, first compound 0.0316 µM) 58.7% | viability, T/C (second compound 3.16 µM, first compound 0.1 µM) 22.4% | viability, T/C (second compound 10 µM, first compound 0.000316 µM) 97.4% | viability, T/C (second compound 10 µM, first compound 0.001 µM) 94.1% | viability, T/C (second compound 10 µM, first compound 0.00316 µM) 126% | viability, T/C (second compound 10 µM, first compound 0.01 µM) 96.8% | viability, T/C (second compound 10 µM, first compound 0.0316 µM) 33.2% | viability, T/C (second compound 10 µM, first compound 0.1 µM) 17%
0.0465 µM: IC50 [1]
0.0499 µM: IC50 [2]
